Source: ChEMBL document CHEMBL1154360, “Cytotoxic and PTP1B inhibitory activities from Erythrina abyssinica” (Bioorg Med Chem Lett, 2009)
pIC50: −log10 of the molar value.

Legend:
[1] = test system: MCF7; assay: Cytotoxicity against human adriamycin- resistant MCF7 cells by WST-1 assay; format: functional, cell-based
[2] = test system: MCF7; assay: Cytotoxicity against human tamoxifen-resistant MCF7 cells by WST-1 assay; format: functional, cell-based
[3] = target: T1, Tyrosine-protein phosphatase non-receptor type 1 (Homo sapiens, UniProt P18031); assay: Inhibition of human recombinant PTP1B assessed as p-nitrophenol production
T1 sequence (P18031 whole entry): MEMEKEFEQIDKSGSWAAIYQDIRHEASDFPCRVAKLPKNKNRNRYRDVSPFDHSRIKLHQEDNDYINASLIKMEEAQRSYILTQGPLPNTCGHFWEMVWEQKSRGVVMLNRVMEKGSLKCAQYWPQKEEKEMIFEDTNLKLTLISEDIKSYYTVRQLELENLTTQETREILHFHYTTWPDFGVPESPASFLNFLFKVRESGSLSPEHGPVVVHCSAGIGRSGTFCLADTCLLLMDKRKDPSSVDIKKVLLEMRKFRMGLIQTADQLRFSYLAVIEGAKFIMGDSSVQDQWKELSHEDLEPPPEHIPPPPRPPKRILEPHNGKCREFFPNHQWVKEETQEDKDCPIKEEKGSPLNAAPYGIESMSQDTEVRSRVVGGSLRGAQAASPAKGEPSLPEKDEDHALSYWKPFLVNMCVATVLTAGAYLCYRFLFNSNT

[4] = test system: MDA-MB-231; assay: Cytotoxicity against human MDA-MB-231 cells by WST-1 assay; format: functional, cell-based
[5] = test system: MCF7; assay: Cytotoxicity against human MCF7 cells by WST-1 assay; format: functional, cell-based

Q: What does the source list for O=Cc1c(O)ccc2c1O[C@H]1c3ccc(O)cc3OC[C@@H]21 [ERYTHRIBYSSIN B]?
A: pIC50 [1]: < 4.52; pIC50 [2]: < 4.52; pIC50 [3]: < 4.52; pIC50 [4]: < 4.52; pIC50 [5]: < 4.52

Q: CC(C)=CCc1cc2c(cc1O)O[C@H]1c3ccc(O)cc3OC[C@@H]21 [SOPHORAPTEROCARPAN A] was tested. Which pIC50 [1] did it give?
A: < 4.52

Q: And the pIC50 [2]?
A: < 4.52

Q: What about the pIC50 [3] of the same compound?
A: < 4.52

Q: What about the pIC50 [4] of the same compound?
A: < 4.52

Q: And the pIC50 [5]?
A: < 4.52

Q: How did the pIC50 [1] turn out when COc1cc2c(cc1O)O[C@H]1c3cc(CC=C(C)C)c(OC)cc3OC[C@@H]21 [ERYTHRIBYSSIN C] was run?
A: < 4.52

Q: And the pIC50 [2]?
A: < 4.52

Q: And the pIC50 [3]?
A: < 4.52

Q: What about the pIC50 [4] of the same compound?
A: < 4.52

Q: And the pIC50 [5]?
A: < 4.52

Q: With CC(C)=CCc1c(O)ccc2c1OC[C@H]1c3ccc4c(c3O[C@@H]21)OC(C)(C)C=C4 [ERYBREADIN D] as the compound, how does the pIC50 [1] read?
A: 4.90

Q: What about the pIC50 [2] of the same compound?
A: 5.11

Q: And the pIC50 [3]?
A: 5.19

Q: CC(C)=CCc1cc2c(cc1O)O[C@H]1c3ccc(O)c(CC=C(C)C)c3OC[C@@H]21 [ERYBREADIN C] was tested. Which pIC50 [1] did it give?
A: 4.70

Q: And the pIC50 [2]?
A: 5.04

Q: And the pIC50 [3]?
A: 5.14

Q: And the pIC50 [4]?
A: 4.64

Q: What about the pIC50 [5] of the same compound?
A: 4.83

Q: CC(C)=CCc1cc2c(cc1O)OC[C@H]1c3ccc4c(c3O[C@@H]21)C=CC(C)(C)O4 [FOLITENOL] was tested. Which pIC50 [1] did it give?
A: 4.97

Q: What about the pIC50 [2] of the same compound?
A: 4.73

Q: And the pIC50 [3]?
A: 5.11

Q: And the pIC50 [4]?
A: 4.78

Q: Which results are given for COc1cc2c(cc1O)O[C@H]1c3cc(CC=C(C)C)c(O)cc3OC[C@@H]21 [ERYVARIN K]?
A: pIC50 [1]: < 4.52; pIC50 [2]: < 4.52; pIC50 [3]: < 4.52; pIC50 [4]: < 4.52; pIC50 [5]: < 4.52

Q: With CC(C)=CCc1c(O)ccc2c1OC[C@H]1c3ccc4c(c3O[C@@H]21)C=CC(C)(C)O4 [ERYBREADIN B] as the compound, how does the pIC50 [1] read?
A: 5.25

Q: What about the pIC50 [2] of the same compound?
A: 5.21

Q: And the pIC50 [3]?
A: 5.38

Q: And the pIC50 [4]?
A: 5.11

Q: What about the pIC50 [5] of the same compound?
A: 4.93

Q: With C[C@H]1[C@H](C)CC[C@]2(C(=O)O)CC[C@]3(C)C(=CC[C@@H]4[C@@]5(C)CC[C@H](O)C(C)(C)[C@@H]5CC[C@]43C)[C@H]12 [URSOLIC ACID] as the compound, how does the pIC50 [1] read?
A: < 4.52

Q: What about the pIC50 [2] of the same compound?
A: < 4.52

Q: And the pIC50 [4]?
A: < 4.52

Q: And the pIC50 [5]?
A: < 4.52

Q: What does the source list for CC(C)=CCc1cc2c(cc1O)OC[C@H]1c3ccc(O)c(CC=C(C)C)c3O[C@@H]21 [ERYBRAEDIN C]?
A: pIC50 [1]: < 4.52; pIC50 [2]: < 4.52; pIC50 [3]: < 4.52; pIC50 [4]: < 4.52; pIC50 [5]: < 4.52

Q: With CC/C(=C(\c1ccccc1)c1ccc(OCCN(C)C)cc1)c1ccccc1 [TAMOXIFEN] as the compound, how does the pIC50 [5] read?
A: 4.94

Q: How did the pIC50 [1] turn out when CC1(C)C=Cc2cc3c(cc2O1)OC[C@H]1c2ccc(O)cc2O[C@@H]31 [NEORAUTENOL] was run?
A: < 4.52

Q: And the pIC50 [2]?
A: < 4.52

Q: What about the pIC50 [3] of the same compound?
A: 5.12

Q: What about the pIC50 [4] of the same compound?
A: < 4.52

Q: What about the pIC50 [5] of the same compound?
A: < 4.52

Q: CC(C)=CCc1c(O)ccc2c1OC[C@H]1c3ccc(O)cc3O[C@@H]21 was tested. Which pIC50 [1] did it give?
A: < 4.52

Q: What about the pIC50 [2] of the same compound?
A: < 4.52

Q: And the pIC50 [3]?
A: 4.71

Q: And the pIC50 [4]?
A: < 4.52

Q: What about the pIC50 [5] of the same compound?
A: < 4.52

Q: With CCCCCCCCCCCCCCCC(=O)C1=C(O)[C@@H](CO)OC1=O as the compound, how does the pIC50 [1] read?
A: < 4.52

Q: What about the pIC50 [2] of the same compound?
A: < 4.52

Q: What about the pIC50 [4] of the same compound?
A: < 4.52

Q: And the pIC50 [5]?
A: < 4.52

Q: With COc1ccc2c(c1CC=C(C)C)O[C@H]1c3ccc(O)cc3OC[C@@]21OC [ERYTHRIBYSSIN A] as the compound, how does the pIC50 [1] read?
A: 4.79

Q: And the pIC50 [2]?
A: 4.92

Q: What about the pIC50 [3] of the same compound?
A: 4.71

Q: And the pIC50 [4]?
A: 4.55

Q: And the pIC50 [5]?
A: 4.71

Q: What does the source list for CC(C)=CCc1cc2c(cc1O)OC[C@@]1(O)c3ccc4c(c3O[C@@H]21)C=CC(C)(C)O4 [ERYSUBIN E]?
A: pIC50 [1]: < 4.52; pIC50 [2]: < 4.52; pIC50 [3]: 5.06; pIC50 [4]: < 4.52; pIC50 [5]: < 4.52

Q: CC(C)=CCc1c(O)ccc2c1O[C@H]1c3ccc(O)cc3OC[C@@H]21 [PHASEOLLIDIN] was tested. Which pIC50 [1] did it give?
A: < 4.52

Q: And the pIC50 [2]?
A: < 4.52

Q: And the pIC50 [3]?
A: < 4.52

Q: What about the pIC50 [4] of the same compound?
A: < 4.52

Q: What about the pIC50 [5] of the same compound?
A: < 4.52

Q: With COc1ccc2c(c1CC=C(C)C)O[C@H]1c3cc(CC=C(C)C)c(O)cc3OC[C@@]21O [ERYSTAGALLIN A] as the compound, how does the pIC50 [1] read?
A: < 4.52

Q: And the pIC50 [2]?
A: < 4.52

Q: And the pIC50 [3]?
A: 4.68

Q: What about the pIC50 [4] of the same compound?
A: < 4.52

Q: What about the pIC50 [5] of the same compound?
A: < 4.52
